The text below walks through data of patent publication US10160719B2, “Pharmaceutical salts” (GRUNENTHAL GMBH, priority 2001, dated 2018).

For orientation: solubility means the concentration that dissolves in the medium under given conditions.

This series is described as follows: water solubility determination at 20° C. in ion-free water. The note with it: for solubility at 10 min: water. As to the method: In a clear colorless vessel made of transparent material, such as, for example, glass or plastic, 1 ml of ion-free water or a fraction (amount A in ml) thereof is introduced at a temperature of 20° C.
If the amount of salt B added (in mg) completely dissolved, further amounts of the respective salt were slowly added. Each further addition was recorded and the solution behavior observed. As soon as the first turbidity due to undissolved salt was found by observation against a suitable background, stirring was continued for a further 10 minutes. If undissolved constituents subsequently remained, the sum C (in mg) of the amount of substance employed was determined. If a clear solution resulted again on stirring, further small amounts of the respective salt were added and the mixture was in each case stirred again for 10 minutes until a first turbidity remained on account of undissolved salts. The excess amount of undissolved substance was then brought into solution with stirring by addition of small amounts of water. After a clear solution had been obtained, the sum D (in ml) of the amount of water employed was determined. The solubility of the respective salt per 1 ml of water was then calculated according to the following formula: […]
If undissolved salt still remained then, the undissolved portion was brought into solution by addition of small amounts of water with stirring. After obtainment of a clear solution, the sum E (in ml) of the amounts of water employed was determined. The solubility of the respective salt per 1 ml of water was then calculated according to the following formula: […]

The mark [1] stands for this setting: Solubility of the active compound salt in mg/ml of water, conventional salt of the active compound (salt indicated in brackets), ion-free water, 20° C.
Setting [2] is: Solubility of the active compound saccharinate in mg/ml of water, saccharinate salt, ion-free water, 20° C.
Setting [3] is: saccharinate salt, ion-free water, 20° C.

Counter-ions that a name gives are not always drawn. A value given as a limit tells only on which side of the number the result lay.

In the case of `COc1cccc([C@@]2(O)CC[C@H](OCc3ccc(F)cc3)C[C@@H]2CN(C)C)c1` [(+)-(1R,2R,4S)-2-dimethylaminomethyl-4-(4-fluorobenzyl-oxy)-1-(3-methoxy-phenyl)cyclohexanol], the solubility at 10 min runs as follows: (ion-free water, Solubility of the active compound saccharinate in mg/ml of water, saccharinate salt, 20° C.) at least 10 mg/mL; (ion-free water, Solubility of the active compound salt in mg/ml of water, conventional salt of the active compound (salt indicated in brackets), 20° C.) at least 33 mg/mL.
“Benzalkonium [Benzalkonium hydrochloride]”: the “Solubility of the active compound salt in mg/ml of water” value (conventional salt of the active compound (salt indicated in brackets), ion-free water, 20° C.) is listed as ≥ 500 mg/ml of water.
As for `COc1cc(N)cn[n+]1-c1ccccc1` [Amezinium metilsulfate, Amezinium], under “Solubility of the active compound salt in mg/ml of water”, the solubility at 10 min was at least 25 mg/mL.
Regarding `COc1ccc2c3c1O[C@H]1[C@@H](O)C=C[C@H]4[C@@H](C2)N(C)CC[C@@]341` [Codeine phosphate hemihydrate, Codeine], the solubility at 10 min under setting [1] is at least 250 mg/mL.
For `COc1cc(N)cn[n+]1-c1ccccc1` [Amezinium saccharinate, Amezinium], the solubility at 10 min (Solubility of the active compound saccharinate in mg/ml of water) was at least 8 mg/mL.
For the compound `CC[C@H](c1cccc(O)c1)[C@H](C)CN(C)C.Cl` [(+)-(1S,2S)-3-(3-dimethylamino-1-ethyl-2-methylpropyl)phenol hydrochloride], under setting [1], the solubility at 10 min is at least 650 mg/mL.
In the case of `CNC[C@H](O)c1cccc(O)c1` [Phenylephrine saccharinate, Phenylephrine], the solubility at 10 min under setting [2] is at least 380 mg/mL.
Regarding `CC[C@@](O)(c1cccc(OC)c1)[C@@H](C)CN(C)C` [(−)-(2S,3S)-1-dimethylamino-3-(3-methoxyphenyl)-2-methylpentan-3-ol], the solubility at 10 min reads like this: under setting [2], at least 90 mg/mL; under setting [1], at least 2000 mg/mL.
With `CNC[C@H](O)c1cccc(O)c1` [Phenylephrine hydrochloride, Phenylephrine], the solubility at 10 min under setting [1] was at least 1250 mg/mL.
Turning to `CC[C@@H](c1cccc(O)c1)[C@@H](C)CN(C)C` [(−)-(1R,2R)-3-(3-dimethylamino-1-ethyl-2-methylpropyl)phenol], the solubility at 10 min runs as follows: under setting [2], at least 31 mg/mL; under setting [1], at least 261 mg/mL.
Regarding `COc1cccc([C@@]2(O)C[C@H](O)CC[C@@H]2CN(C)C)c1` (racemic) [(1RS,3RS,6RS)-6-dimethylaminomethyl-1-(3-methoxy-phenyl)cyclohexane-1,3-diol], the solubility at 10 min is at least 71 mg/mL under setting [2] and at least 500 mg/mL under setting [1].
With `CC[C@H](c1cccc(O)c1)[C@H](C)CN(C)C.O=C1NS(=O)(=O)c2ccccc21` [(+)-(1S,2S)-3-(3-dimethylamino-1-ethyl-2-methylpropyl)phenol saccharinate], under setting [3], the “Solubility of the active compound saccharinate in mg/ml of water” value was ≥ 55 mg/ml of water.
Regarding `CC[C@@](F)(c1cccc(O)c1)[C@@H](C)CN(C)C` [(−)-(1S,2S)-3-(3-dimethylamino-1-ethyl-1-fluoro-2-methyl-propyl)phenol], the solubility at 10 min was at least 130 mg/mL under setting [2] and at least 568 mg/mL under setting [1].
As to “Benzalkonium [Benzalkonium saccharinate]”, the “Solubility of the active compound saccharinate in mg/ml of water” value under setting [3] was <2 mg/ml of water.
`COc1ccc2c3c1O[C@H]1[C@@H](O)C=C[C@H]4[C@@H](C2)N(C)CC[C@@]341` [Codeine saccharinate, Codeine]: the solubility at 10 min under setting [2] was at least 200 mg/mL.
